Data: patent US20230114728A1 (Venatorx Pharmaceuticals, Inc., priority 2019, published 2023)
In brackets after ≈: the same amount, converted by molar mass. Read-outs that look alike come from different tables or passages of the source.

Experiments:
P. aeruginosa PBP3 = molecular target: T1, P. aeruginosa PBP3 (Pseudomonas aeruginosa, UniProt G3XD46); experiment: Bocillin-FL fluorescence polarization competition binding assay, P. aeruginosa PBP3; conditions: fluorescence polarization competition binding assay using Bocillin-FL
T1 construct: made in house
Description: Example I: Experimental Method for Penicillin-Binding Protein Binding Assays with Bocillin-FL Via Fluorescence Polarization
To determine the ability of boronic acid-based test PBP inhibitors to bind Penicillin Binding Proteins (PBPs), Bocillin-FL (fluorescently-labeled penicillin V; ThermoFisher Scientific) was used in a fluorescence polarization (FP) competition binding assay to assess inhibitor binding to PBP2, PBP3 or PBP4 from Escherichia coli (K12), PBP3 from Pseudomonas aeruginosa (PA01), PBP1a, PBP2 and PBP3 from Acinetobacter baumannii (ATCC 19606), and PBP2 from Neiserria gonorrheae (FA19). PBPs were cloned and purified as described previously (E. coli PBPs, King, D. T, et al., ACS Infectious Diseases 2015, 1, 175-184; P. aeruginosa PBP3, Han et. al., PNAS 2010, 107 (51), 22002-22007; A. baumannii PBPs, Penwell et. al., Antimicrob. Agents Chemother. 2015, 59 (3), 1680-1689; N. gonorrhoeae PBP2, Singh et. al., J Biol. Chem. 2019, 294 (38), 14020-14032). To establish assay conditions for competition binding, enzyme titration/saturation binding experiments were initially performed. Bocillin-FL was prepared at 0.2 μM in a buffer comprised of 50 mM Hepes (pH 8.0), 300 mM NaCl and 5% (v/v) glycerol for reactions with E. coli, P. aeruginosa and N. gonorrhoeae PBPs, and 25 mM Tris (pH 8.0), 200 mM NaCl and 10% (v/v) glycerol and 0.005% (v/v) Tween 20 for reactions with A. baumannii PBPs. Saturation binding was performed by mixing 40 μl of PBP solutions ranging in concentrations from 0-24 μM with 40 μl of the 0.2 μM Bocillin-FL solution, in individual wells of a black 384-well microplate. FP was measured immediately upon mixing (Excitation, 490 nm; Emission, 520 nm; g-factor, 0.96), using a Cytation3 (BioTek) microplate reader and measured continuously for up to 120 minutes. […] The competition binding assay (80 μl final volume) was validated using beta-lactams and PBPs at final concentrations of: 1.5 μM, E. coli PBP3; 0.75 μM, P. aeruginosa PBP3; 1 μM A. baumannii PBP1a; 2.5 μM A. baumannii PBP2; 0.2 μM A. baumannii PBP3; and […] N. gonorrhoeae PBP2. Bocillin-FL was at 0.1 μM (0.05 μM with A. baumannii PBP1a) and beta-lactam concentrations ranged from 0-1000 μM. […] Bocillin-FL was added and the FP immediately measured for up to 60 minutes (90 minutes for E. coli PBP2). […] The beta-lactam potency was reported as the concentration of beta-lactam required to reduce the amount of PBP bound-Bocillin-FL by 50% (EC50). […] Binding assays for boronic acid PBP inhibitors were performed in an identical fashion for the respective PBPs

A. baumannii ATCC 19606 = experiment: Broth microdilution MIC in CAMHB; format: cell-based; conditions: Acinetobacter baumannii, ATCC19606; MHB; read-out: Minimum Inhibitory Concentration, A. baumannii ATCC 19606
Procedure: (§1) Example III: In Vitro Antibacterial Assays
(§2) To determine the ability of test compounds to inhibit the growth of bacterial strains, classic cell based broth microdilution minimum inhibitory concentration (MIC) assays were employed. MIC assays are performed according to CLSI methods except where otherwise noted (CLSI, 2018 and CLSI, 2019). The reference type strain E. coli ATCC 25922; the wild-type parent strain E. coli AG100; the hyper-permeable E. coli 901C and E. coli D22; and the E. coli AG100A strain lacking the acrAB efflux pump encoding genes were used to determine the ability of the PBP inhibitors to penetrate the outer membrane of gram-negative bacteria and inhibit bacterial growth. […] The P. aeruginosa ATCC 27853 and A. baumannii ATCC 19606, along with the hyper-permeable P. aeruginosa ATCC 35151 and an engineered efflux pump-compromised strain of P. aeruginosa (ΔmexAB-oprM) were used to determine the ability of PBP inhibitors to penetrate the outer membrane of P. aeruginosa and A. baumannii and assess antibacterial activity against these important gram-negative organisms.
(§3) Briefly, cryo-preserved bacterial cultures of challenge strains are streaked for isolation on appropriate agar medium, in this case cation-adjusted Mueller Hinton agar. Following incubation to allow growth of the colonies, plates are sealed with parafilm and stored refrigerated for up to two weeks. For preparation of assay inoculum and to ensure low variability, at least 5 colonies are picked from the agar plates with an inoculating loop and aseptically transferred to a culture tube containing 3 mL of cation-adjusted Mueller Hinton broth (CAMHB). The broth culture is grown for 3-5 hours at 37° C. with shaking at 200 rpm. Meanwhile, 2-fold serial dilutions of test compounds are conducted in a 96-well plate with a final volume of 75 μL per well at 2-fold the final desired concentration. After the dilution plates are set up the growing cultures are then diluted in a cuvette containing CAMHB and the optical density is measured at 600 nm. The inoculum is diluted such that 75 μL of this culture in CAMHB results in a starting bacterial concentration of 2-8×10^5 CFU/mL when added to the dilution plates. The plates are incubated for 16-20 hours for Enterobacteriaceae and Pseudomonas and 20-24 hours for Acinetobacter at 37° C. The MIC values are read visually as the lowest concentration well with no bacterial growth.

E. coli 901C = experiment: Broth microdilution MIC in CAMHB; format: cell-based; conditions: Escherichia coli, MHB, read-out: Minimum Inhibitory Concentration, E. coli 901C
Procedure: as §1, §2, §3

E. coli AG100A = experiment: Broth microdilution MIC in CAMHB; format: cell-based; conditions: Escherichia coli, read-out: Minimum Inhibitory Concentration, E. coli AG100A
Procedure: as §1, §2, §3

E. coli AG100 = experiment: Broth microdilution MIC in CAMHB; format: cell-based; conditions: Escherichia coli, MHB, read-out: Minimum Inhibitory Concentration, E. coli AG100
Procedure: as §1, §2, §3

E. coli ATCC 25922 = experiment: Broth microdilution MIC in CAMHB; format: cell-based
Procedure: as §1, §2, §3

E. coli D22 = experiment: Broth microdilution MIC in CAMHB; format: cell-based; conditions: Escherichia coli, MHB, read-out: Minimum Inhibitory Concentration, E. coli D22
Procedure: as §1, §2, §3

[1] = tested on: K. pneumoniae 848844 producing SHV-11 and KPC-2; experiment: Broth microdilution MIC in CAMHB; format: cell-based; conditions: Klebsiella pneumoniae, read-out: Minimum Inhibitory Concentration, K. pneumoniae 848844
Procedure: as §1, §2, §3

[2] = tested on: K. pneumoniae SI-117 producing VIM-1; experiment: Broth microdilution MIC in CAMHB; format: cell-based; conditions: Klebsiella pneumoniae, read-out: Minimum Inhibitory Concentration, K. pneumoniae SI-117
Procedure: as §1, §2, §3

[3] = tested on: K. pneumoniae UMM producing SHV-5 and KPC-2; experiment: Broth microdilution MIC in CAMHB; format: cell-based; conditions: Klebsiella pneumoniae, read-out: Minimum Inhibitory Concentration, K. pneumoniae UMM
Procedure: as §1, §2, §3

[4] = tested on: P. aeruginosa (ΔmexAB-oprM); experiment: Broth microdilution MIC in CAMHB; format: cell-based; conditions: Pseudomonas aeruginosa, read-out: Minimum Inhibitory Concentration, P. aeruginosa ΔmexAB-OprM
Procedure: as §1, §2, §3

P. aeruginosa ATCC 27853 = experiment: Broth microdilution MIC in CAMHB; format: cell-based; conditions: Pseudomonas aeruginosa, ATCC27853; MHB; read-out: Minimum Inhibitory Concentration, P. aeruginosa ATCC 27853
Procedure: as §1, §2, §3

P. aeruginosa ATCC 35151 = experiment: Broth microdilution MIC in CAMHB; format: cell-based; conditions: Pseudomonas aeruginosa, ATCC35151; MHB; hyper-permeable strain; read-out: Minimum Inhibitory Concentration, P. aeruginosa ATCC 35151
Procedure: as §1, §2, §3

[5] = wild-type parent strain E. coli AG100
[6] = Escherichia coli, ATCC25922; MHB; E. coli ATCC 25922; read-out: Minimum Inhibitory Concentration, E. coli 25922

T1 sequence (G3XD46 whole entry): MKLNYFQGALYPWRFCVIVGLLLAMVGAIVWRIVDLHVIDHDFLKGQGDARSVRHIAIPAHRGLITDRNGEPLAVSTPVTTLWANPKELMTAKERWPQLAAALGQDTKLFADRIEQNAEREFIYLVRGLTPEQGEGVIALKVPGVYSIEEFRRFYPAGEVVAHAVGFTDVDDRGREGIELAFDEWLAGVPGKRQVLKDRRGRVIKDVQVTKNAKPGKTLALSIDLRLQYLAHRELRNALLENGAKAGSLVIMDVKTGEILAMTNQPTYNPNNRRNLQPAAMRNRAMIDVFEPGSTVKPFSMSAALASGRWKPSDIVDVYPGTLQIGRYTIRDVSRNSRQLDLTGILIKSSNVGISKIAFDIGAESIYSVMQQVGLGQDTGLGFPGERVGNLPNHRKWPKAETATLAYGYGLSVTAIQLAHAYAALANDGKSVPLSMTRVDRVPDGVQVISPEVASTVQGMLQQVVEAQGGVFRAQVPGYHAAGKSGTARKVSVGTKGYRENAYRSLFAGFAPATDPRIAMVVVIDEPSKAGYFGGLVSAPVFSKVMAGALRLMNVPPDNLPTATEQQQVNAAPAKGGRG

Row | Compound | P. aeruginosa PBP3 Potency (P. aeruginosa PBP3) | MIC (A. baumannii ATCC 19606) [µg/mL] | MIC (E. coli 901C; hyper-permeable E. coli 901C) [µg/mL] | MIC (E. coli AG100A) [µg/mL] | MIC (E. coli AG100; [5]) [µg/mL] | MIC (E. coli ATCC 25922; [6]) [µg/mL] | MIC (E. coli D22; hyper-permeable E. coli D22) [µg/mL] | MIC [1] [µg/mL] | MIC [2] [µg/mL] | MIC [3] [µg/mL] | MIC [4] [µg/mL] | MIC (P. aeruginosa ATCC 27853) [µg/mL] | MIC (P. aeruginosa ATCC 35151) [µg/mL] | MIC (E. coli 901C; E. coli 901C (hyper-permeable)) [µg/mL] | MIC (E. coli AG100; E. coli AG100 (wild-type parent)) [µg/mL] | MIC (E. coli ATCC 25922; Escherichia coli, ATCC25922; E. coli ATCC 25922; MHB; read-out: Minimum Inhibitory Concentration, E. coli 25922) [µg/mL] | MIC (E. coli D22; E. coli D22 (hyper-permeable)) [µg/mL]
1 | CCN1C[C@H](C)N(C(=O)N[C@@H](C(=O)N[C@H]2Cc3cccc(C(=O)O)c3OB2O)c2ccc(O)c(F)c2F)C(=O)C1=O [Example 240, (3R)-3-(2-(2,3-difluoro-4-hydroxyphenyl)-2-((S)-4-ethyl-6-methyl-2,3-dioxopiperazine-1-carboxamido)acetamido)-2-hydroxy-3,4-dihydro-2H-benzo[e][1,2]oxaborinine-8-carboxylic acid] | D (D represents a potency <10 μM) | > 128 | > 128 | 32 to 64 (≈ 55.7 to 111 µM) | > 128 | 32 to 64 (≈ 55.7 to 111 µM) | 32 to 64 (≈ 55.7 to 111 µM) | 32 to 64 (≈ 55.7 to 111 µM) | 2 to 4 (≈ 3.48 to 6.96 µM) | < 0.25 | 8 to 16 (≈ 13.9 to 27.9 µM) | > 128 | 2 to 4 (≈ 3.48 to 6.96 µM) | – | – | – | –
2 | CCN1CCN(C(=O)N[C@H](C(=O)N[C@H]2Cc3cccc(C(=O)O)c3OB2O)c2ccc(C(=O)O)c(Cl)c2F)C(=O)C1=O (single isomer, unassigned) [Example 221] | C (C represents a potency between 10 and 30 μM) | > 128 | – | > 128 | – | – | – | > 128 | 8 to 16 (≈ 13.2 to 26.5 µM) | 0.5 to 1 (≈ 0.827 to 1.65 µM) | 32 to 64 (≈ 52.9 to 106 µM) | > 128 | 2 to 4 (≈ 3.31 to 6.61 µM) | > 128 | > 128 | 32 to 64 (≈ 52.9 to 106 µM) | > 128
3 | C[C@H]1CN(CCCN)C(=O)C(=O)N1C(=O)NC(C(=O)N[C@H]1Cc2cccc(C(=O)O)c2OB1O)c1ccc(O)c(F)c1F (stereo partly drawn) [Example 243, (3R)-3-(2-((S)-4-(3-aminopropyl)-6-methyl-2,3-dioxopiperazine-1-carboxamido)-2-(2,3-difluoro-4-hydroxyphenyl)acetamido)-2-hydroxy-3,4-dihydro-2H-benzo[e][1,2]oxaborinine-8-carboxylic acid] | D (D represents a potency <10 μM) | > 128 | > 128 | 32 to 64 (≈ 53 to 106 µM) | 32 to 64 (≈ 53 to 106 µM) | 32 to 64 (≈ 53 to 106 µM) | 32 to 64 (≈ 53 to 106 µM) | 32 to 64 (≈ 53 to 106 µM) | 2 to 4 (≈ 3.31 to 6.63 µM) | 0.5 to 1 (≈ 0.829 to 1.66 µM) | 8 to 16 (≈ 13.3 to 26.5 µM) | > 128 | 2 to 4 (≈ 3.31 to 6.63 µM) | – | – | – | –
